{"source": "patent US7462486B2", "about": "“Methods of selecting T cell receptor V peptides for therapeutic use” (Oregon Health & Science University, priority 2000, dated 2008)", "format_in_all_cases": "cell-based, human", "key": {"[1]": {"tested_on": "IFN-γ-secreting T cells (PBMC)", "test": "IFN-γ ELISPOT: frequency of TCR CDR2 peptide-specific cells in PBMC", "conditions": "for frequency of IFN-γ-secreting cells: 5 healthy controls, mean, single peptide; for induction of IFN-γ-secreting T cells in HC: 5 HC", "procedure": "(§1) Antigens. Antigens used in the ELISPOT assay included ConA (2 μg/ml) and synthetic TCR peptides (25 μg/ml), including 116 known AV and BV gene products.\n(§2) T cell frequency. To determine antigen-specific T cell frequency by ELISPOT, blood mononuclear cells were separated by Ficoll density gradient centrifugation, resuspended in 2% human AB serum, and aliquotted at 0.5 and 0.25 million cells in triplicate wells of nitrocellulose-coated microtiter plates (Resolution Technologies) pretreated with anti-IFN-γ (Mabtech, Sweden) or anti-IL-10 (PharMingen, San Diego, Calif.) mAb. Peptides, ConA, and medium were added and the plates incubated at 37 C for 24 hours (IFN-γ) or 48 hours (IL-10). Biotin-labeled secondary mAb for each cytokine was added, followed by streptavidin-alkaline phosphatase (Dako Corp., Carpinteria, Calif.) and substrate (BCIP/NBT phosphatase substrate, KPL, Gaithersburg, Md.) to develop optimal blue staining. Cytokine spots were quantified using an AID Immunospot Analyzer (AID, Cleveland, Ohio) equipped with a high resolution lens camera and analytical software designed for use with the AID system. Mean spots/well were calculated for each Ag, and net counts established after subtraction of background (no Ag). The frequency of Ag-specific spot-forming cells per million PBMC was determined from the average net response observed at two different cell concentrations. The mean net frequency+SEM was calculated for MS patients and HC, and differences compared by Student's t test for significance (p<0.05).\n(§3) Preparation of ELISPOT plates. Four flat bottom 96 well plates with nitrocellulose membranes were coated overnight with 4 μg/ml mouse anti-IL-10 monoclonal antibodies (Pharmingen), and an additional 4 plates were coated with 10 μg/ml mouse anti-human INF((Mabtech). Two hours before addition of peptides, plates were washed 3× with sterile PBS, pH 7.2, and blocked for one hour at room temperature with 10% FBS in sterile PBS.\n(§4) Blood processing. Twelve tubes of blood (approximately 120 ml) were collected from healthy controls and MS patients. The blood was immediately separated over a Ficoll gradient by centrifugation for 25 minutes at 2100 rpm at 25 degrees. Peripheral blood mononuclear cells (PBMC) so obtained were washed 3× with cold RPMI and resuspended to 10×10^6 cells per ml.\n(§5) TCR peptide screens. Sterile stocks containing 1 mg/ml peptide were aliquotted among 4 sterile 96 well polypropylene blocks. Blocks were kept refrigerated for up to one month. Precoated and blocked ELIPSOT plates were washed with 1× with blocking solution and 100 μl of stimulation medium was added (5% fetal bovine serum/1% human AB serum/2 mM pyruvate, 2 mM glutamate, and 50 μg/ml penicillin/streptomycin). 10 μl of each peptide was added per well in triplicate wells. Negative control wells contained RPMI, positive control wells contained 2 μg/ml final concentration ConA. To each well human PBMC were added at a density of 2.5×10^5 cells per well in a total of 8 plates ([…]). Plates were incubated for 24 hours for INF-γ ELISPOTs and for 48 hours for IL-10 ELISPOTs.\n(§6) Detection of cytokine producing cells. PBMC were removed from plates by washing with 3× with PBS and 3× with PBS/0.05% Tween, pH 7.6. To each well was added 100 μl of either anti-IFN-γ (1 μg/ml, Mabtech) or anti-IL-10 (2 μg/ml, Pharmingen) and incubated for 4 hours at room temperature in the dark. Plates were washed 4× with PBS/Tween, then 100 μl per well of alkaline-phosphatase-conjugated streptaviden (DAKO) (1:1000 of stock) was added and plates were incubated for 45 minutes at room temperature. Plates were washed 4× with PBS/Tween and 6× with PBS, 1 minute each. 100 μl of BCIP/NBT substrate (KPL laboratories) was added and the color reaction was allowed to develop for 3-7 minutes. Plates were rinsed 3× with distilled water and dried overnight at room temperature.\n(§7) Analysis of ELISPOTS. […]"}, "[2]": {"tested_on": "IL-10-secreting T cells (PBMC)", "test": "IL-10 ELISPOT: frequency of TCR CDR2 peptide-specific cells in PBMC", "conditions": "for IL-10 response, MS patients versus HC: comparison in words; for frequency of responding cells (IL-10) in SPMS patient: MS186; for frequency of responding cells (IL-10) in HC: healthy controls (HC); for frequency of responding cells (IL-10) in HC / frequency of IL-10-secreting T cells: single peptide; for IL-10 response, SPMS patient versus HC: third SPMS patient (MS186), FIG. 4; for frequency of IL-10-secreting T cells: 5 healthy controls", "procedure": "as §1, §2, §3, §4, §5, §6, §7"}, "CD4+CD25− T cells": {"tested_on": "CD4+CD25− T cells", "test": "Treg assay of antigen-specific CD4+CD25+ T cell lines", "conditions": "result in words"}}, "note": "“Also recorded” adds a separate entry of the source.", "data": [{"substance": "NQNKEFMLLISFQNEQVLQET [BV19S1P]", "values": [{"measurement": "frequency of IFN-γ-secreting cells", "setting": "[1]", "value": 900, "unit": "cells/million PBMC"}]}, {"substance": "DLGHGLRLIHYSYGVQDTNKG [BV12S2A1T]", "values": [{"measurement": "induction of IFN-γ-secreting T cells in HC", "setting": "[1]", "value": "induced IFN-γ-secreting T cells in all 5 HC"}, {"measurement": "IFN-γ recognition by MS patients", "setting": "[1]", "value": "poorly recognized"}]}, {"substance": "ALGQGPQFIFQYYEEEERQRG [BV5S2]", "values": [{"measurement": "IL-10 response, MS patients versus HC", "setting": "[2]", "value": "significantly lower; also recorded: significantly reduced frequencies"}]}, {"substance": "YPNQGLQLLLKYTSAATLVKG [AV1S2A1N1T]", "values": [{"measurement": "frequency of responding cells (IL-10) in SPMS patient", "setting": "[2]", "value": 300, "unit": "cells/million"}, {"measurement": "frequency of responding cells (IL-10) in two symptomatic RRMS patients", "setting": "[2]; MS193 and MS74", "value": "> 1700", "unit": "cells/million"}, {"measurement": "frequency of responding cells (IL-10) in HC", "setting": "[2]", "value": "< 25", "unit": "cells/million"}, {"measurement": "IL-10 response, SPMS patient versus HC", "setting": "[2]", "value": "responded better than HC"}]}, {"substance": "VLKNEFKFLISFQNENVFDET [BV25S1A1T]", "values": [{"measurement": "frequency of responding cells (IL-10) in SPMS patient", "setting": "[2]", "value": 450, "unit": "cells/million"}, {"measurement": "frequency of responding cells (IL-10) in HC", "setting": "[2]", "value": 150, "unit": "cells/million"}, {"measurement": "IL-10 response, SPMS patient versus HC", "setting": "[2]", "value": "responded better than HC"}]}, {"substance": "SLGQGPEFLIYFQGTGAADDS [BV6S1A1N1]", "values": [{"measurement": "IL-10 response, MS patients versus HC", "setting": "[2]", "value": "significantly lower"}, {"measurement": "IL-10 response, MS patients versus HC", "setting": "[2]; listed as BV6S1A1N1T", "value": "significantly reduced frequencies"}]}, {"substance": "DLGHGLRLIHYSYGVKDTNKG [BV12S2A2T]", "values": [{"measurement": "induction of IFN-γ-secreting T cells in HC", "setting": "[1]", "value": "induced IFN-γ-secreting T cells in all 5 HC"}, {"measurement": "IFN-γ recognition by MS patients", "setting": "[1]", "value": "poorly recognized"}]}, {"substance": "KLEEELKFLVYFQNEELIQKA [BV10S1P]", "values": [{"measurement": "frequency of IFN-γ-secreting cells", "setting": "[1]", "value": "minimal frequencies"}, {"measurement": "frequency of IL-10-secreting T cells", "setting": "[2]; mean", "value": "> 2000", "unit": "cells/million PBMC"}]}, {"substance": "KHGEAPVFLMILLKGGEQKGH [AV29S1A2T]", "values": [{"measurement": "frequency of IL-10-secreting T cells", "setting": "[2]; mean", "value": "> 1000", "unit": "cells/million PBMC"}, {"measurement": "frequency of responding cells (IL-10) in MS patients", "setting": "[2]; MS patients, mean", "value": "> 1500", "unit": "cells/million"}, {"measurement": "frequency of responding cells (IL-10) in HC", "setting": "[2]", "value": "about 1000 cells/million"}]}, {"substance": "Tetanus toxoid", "values": [{"measurement": "Treg activity of T cell line specific for the antigen", "setting": "CD4+CD25− T cells", "value": "did not have any detectable Treg activity"}]}, {"substance": "SSGEMIFLIYQGSYDQQNATE [ADV6S1A1N1]", "values": [{"measurement": "induction of IFN-γ-secreting T cells in HC", "setting": "[1]", "value": "induced IFN-γ-secreting T cells in all 5 HC"}, {"measurement": "IFN-γ recognition by MS patients", "setting": "[1]", "value": "poorly recognized"}]}]}
